For data set [1] the following is noted: Liquid; for vapor or sublimation pressure: 278.15 K, Closed cell (Static) method; for mass density: 293.15 K, 101.33 kPa, Vibrating tube method.
The nature of data set [2]: refractive index (Na D-line) (dimensionless). The settings on record: 293.15 K; 101.33 kPa; Liquid; Standard Abbe refractometry.

Numbers after ± are expanded uncertainties.

For `O=C=O` [carbon dioxide], in data set [1], the “vapor or sublimation pressure” value is 3962 ± 18 kPa.

For the compound `CCCCCCCC` [octane], in data set [1], the mass density is listed as 703 ± 1 kg/m3. Moreover, the refractive index in data set [2] was 1.396 ± 0.001.

For `CCCCCC` [hexane], in data set [1], the mass density worked out at 660 ± 1 kg/m3. Further, the refractive index in data set [2] was determined as 1.375 ± 0.001.

As to `CC(C)CC(C)(C)C` [2,2,4-trimethylpentane], in data set [1], the mass density is on record as 692 ± 1 kg/m3. The refractive index in data set [2] amounted to 1.391 ± 0.001.

For the compound `CC` [ethane], the “vapor or sublimation pressure” value in data set [1] is given as 2699 ± 14 kPa.

These data come from the NIST ThermoML archive (doi:10.1021/acs.jced.7b00613).
